# System: Metabolism protein genes
# Assay: DNA chip mRNA expression in yeast, metabolism protein genes (Table 7)
# Format: cell-based, Saccharomyces cerevisiae S288C
# In short: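 Chemical exposure: 2 h, log-phase S. cerevisiae S288C, YPD, 25° C., dose set to inhibit growth without death. Profiling: mRNA labeled by reverse transcription with Cy3- or Cy5-dUTP, hybridized to whole-genome array. Output: fluorescence ratio against untreated culture.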
structure (smiles),measurement,setting,value
"CCCCCCCCCCCCOS(=O)(=O)[O-].[Na+] [(18), sodium lauryl sulfate]",The level of expressed mRNA in the presence of chemical substance/The level of expressed mRNA in the absence of chemical substance,yeast gene YKL035W,1.9
same,level of expressed mRNA in the presence/in the absence of chemical substance,yeast gene YKL060C,1.7
same,The level of expressed mRNA in the presence of chemical substance/The level of expressed mRNA in the absence of chemical substance,yeast gene YKL091C,2.0
same,The level of expressed mRNA in the presence of chemical substance/The level of expressed mRNA in the absence of chemical substance,yeast gene YKL104C,1.1
same,level of expressed mRNA in the presence/in the absence of chemical substance,yeast gene YKL148C,1.0
same,The level of expressed mRNA in the presence of chemical substance/The level of expressed mRNA in the absence of chemical substance,yeast gene YKL152C,1.7
same,level of expressed mRNA in the presence/in the absence of chemical substance,yeast gene YKL157W,1.5
same,The level of expressed mRNA in the presence of chemical substance/The level of expressed mRNA in the absence of chemical substance,yeast gene YKL213C,1.6
same,The level of expressed mRNA in the presence of chemical substance/The level of expressed mRNA in the absence of chemical substance,yeast gene YKL215C,0.9
same,The level of expressed mRNA in the presence of chemical substance/The level of expressed mRNA in the absence of chemical substance,yeast gene YKR009C,2.5
same,level of expressed mRNA in the presence/in the absence of chemical substance,yeast gene YKR034W,1.0
same,The level of expressed mRNA in the presence of chemical substance/The level of expressed mRNA in the absence of chemical substance,yeast gene YKR039W,1.1
same,The level of expressed mRNA in the presence of chemical substance/The level of expressed mRNA in the absence of chemical substance,yeast gene YLL058W,1.3
same,level of expressed mRNA in the presence/in the absence of chemical substance,yeast gene YLR006C,1.0
same,level of expressed mRNA in the presence/in the absence of chemical substance,yeast gene YLR044C,0.9
same,level of expressed mRNA in the presence/in the absence of chemical substance,yeast gene YLR056W,1.1
same,level of expressed mRNA in the presence/in the absence of chemical substance,yeast gene YLR058C,0.8
same,level of expressed mRNA in the presence/in the absence of chemical substance,yeast gene YLR081W,0.9
same,level of expressed mRNA in the presence/in the absence of chemical substance,yeast gene YLR089C,1.3
same,The level of expressed mRNA in the presence of chemical substance/The level of expressed mRNA in the absence of chemical substance,yeast gene YLR180W,0.7
same,The level of expressed mRNA in the presence of chemical substance/The level of expressed mRNA in the absence of chemical substance,yeast gene YLR273C,1.0
same,level of expressed mRNA in the presence/in the absence of chemical substance,yeast gene YLR284C,8.1
same,The level of expressed mRNA in the presence of chemical substance/The level of expressed mRNA in the absence of chemical substance,yeast gene YLR299W,1.4
same,The level of expressed mRNA in the presence of chemical substance/The level of expressed mRNA in the absence of chemical substance,yeast gene YLR300W,0.5
same,level of expressed mRNA in the presence/in the absence of chemical substance,yeast gene YLR304C,0.7
same,The level of expressed mRNA in the presence of chemical substance/The level of expressed mRNA in the absence of chemical substance,yeast gene YLR307W,1.0
same,The level of expressed mRNA in the presence of chemical substance/The level of expressed mRNA in the absence of chemical substance,yeast gene YLR348C,1.0
same,level of expressed mRNA in the presence/in the absence of chemical substance,yeast gene YLR354C,1.5
same,level of expressed mRNA in the presence/in the absence of chemical substance,yeast gene YLR372W,0.6
same,level of expressed mRNA in the presence/in the absence of chemical substance,yeast gene YML022W,0.7
same,The level of expressed mRNA in the presence of chemical substance/The level of expressed mRNA in the absence of chemical substance,yeast gene YML054C,1.6
same,The level of expressed mRNA in the presence of chemical substance/The level of expressed mRNA in the absence of chemical substance,yeast gene YML070W,1.3
same,The level of expressed mRNA in the presence of chemical substance/The level of expressed mRNA in the absence of chemical substance,yeast gene YML100W,1.5
same,The level of expressed mRNA in the presence of chemical substance/The level of expressed mRNA in the absence of chemical substance,yeast gene YMR008C,1.9
same,level of expressed mRNA in the presence/in the absence of chemical substance,yeast gene YMR011W,1.6
same,level of expressed mRNA in the presence/in the absence of chemical substance,yeast gene YMR015C,1.0
same,The level of expressed mRNA in the presence of chemical substance/The level of expressed mRNA in the absence of chemical substance,yeast gene YMR020W,2.2
same,The level of expressed mRNA in the presence of chemical substance/The level of expressed mRNA in the absence of chemical substance,yeast gene YMR081C,3.0
same,level of expressed mRNA in the presence/in the absence of chemical substance,yeast gene YMR083W,1.1
same,The level of expressed mRNA in the presence of chemical substance/The level of expressed mRNA in the absence of chemical substance,yeast gene YMR105C,2.6
same,The level of expressed mRNA in the presence of chemical substance/The level of expressed mRNA in the absence of chemical substance,yeast gene YMR189W,0.8
same,level of expressed mRNA in the presence/in the absence of chemical substance,yeast gene YMR205C,0.5
same,level of expressed mRNA in the presence/in the absence of chemical substance,yeast gene YMR261C,1.1
same,The level of expressed mRNA in the presence of chemical substance/The level of expressed mRNA in the absence of chemical substance,yeast gene YMR271C,2.2
same,The level of expressed mRNA in the presence of chemical substance/The level of expressed mRNA in the absence of chemical substance,yeast gene YMR296C,0.7
same,level of expressed mRNA in the presence/in the absence of chemical substance,yeast gene YMR323W,0.6
same,The level of expressed mRNA in the presence of chemical substance/The level of expressed mRNA in the absence of chemical substance,yeast gene YNL012W,1.5
same,level of expressed mRNA in the presence/in the absence of chemical substance,yeast gene YNL025C,1.3
same,The level of expressed mRNA in the presence of chemical substance/The level of expressed mRNA in the absence of chemical substance,yeast gene YNL045W,1.1
same,The level of expressed mRNA in the presence of chemical substance/The level of expressed mRNA in the absence of chemical substance,yeast gene YNL104C,0.9
same,The level of expressed mRNA in the presence of chemical substance/The level of expressed mRNA in the absence of chemical substance,yeast gene YNL106C,0.9
same,The level of expressed mRNA in the presence of chemical substance/The level of expressed mRNA in the absence of chemical substance,yeast gene YNL169C,1.3
same,level of expressed mRNA in the presence/in the absence of chemical substance,yeast gene YNL192W,2.8
same,The level of expressed mRNA in the presence of chemical substance/The level of expressed mRNA in the absence of chemical substance,yeast gene YNL231C,4.0
same,The level of expressed mRNA in the presence of chemical substance/The level of expressed mRNA in the absence of chemical substance,yeast gene YNL322C,1.0
same,The level of expressed mRNA in the presence of chemical substance/The level of expressed mRNA in the absence of chemical substance,yeast gene YNL331C,1.3
same,The level of expressed mRNA in the presence of chemical substance/The level of expressed mRNA in the absence of chemical substance,yeast gene YNL332W,1.0
same,The level of expressed mRNA in the presence of chemical substance/The level of expressed mRNA in the absence of chemical substance,yeast gene YNR019W,2.0
same,The level of expressed mRNA in the presence of chemical substance/The level of expressed mRNA in the absence of chemical substance,yeast gene YNR033W,1.1
same,The level of expressed mRNA in the presence of chemical substance/The level of expressed mRNA in the absence of chemical substance,yeast gene YNR059W,2.2
same,The level of expressed mRNA in the presence of chemical substance/The level of expressed mRNA in the absence of chemical substance,yeast gene YOL058W,0.8
same,level of expressed mRNA in the presence/in the absence of chemical substance,yeast gene YOL086C,1.3
same,level of expressed mRNA in the presence/in the absence of chemical substance,yeast gene YOL108C,2.7
same,level of expressed mRNA in the presence/in the absence of chemical substance,yeast gene YOL116W,1.4
same,The level of expressed mRNA in the presence of chemical substance/The level of expressed mRNA in the absence of chemical substance,yeast gene YOL126C,2.4
same,The level of expressed mRNA in the presence of chemical substance/The level of expressed mRNA in the absence of chemical substance,yeast gene YOL153C,1.7
same,level of expressed mRNA in the presence/in the absence of chemical substance,yeast gene YOL156W,0.9
same,The level of expressed mRNA in the presence of chemical substance/The level of expressed mRNA in the absence of chemical substance,yeast gene YOL165C,1.0
same,level of expressed mRNA in the presence/in the absence of chemical substance,yeast gene YOR002W,1.1
same,level of expressed mRNA in the presence/in the absence of chemical substance,yeast gene YOR085W,0.9
same,The level of expressed mRNA in the presence of chemical substance/The level of expressed mRNA in the absence of chemical substance,yeast gene YOR099W,2.3
same,level of expressed mRNA in the presence/in the absence of chemical substance,yeast gene YOR103C,1.5
same,level of expressed mRNA in the presence/in the absence of chemical substance,yeast gene YOR108W,1.1
same,level of expressed mRNA in the presence/in the absence of chemical substance,yeast gene YOR128C,1.2
same,The level of expressed mRNA in the presence of chemical substance/The level of expressed mRNA in the absence of chemical substance,yeast gene YOR130C,1.1
same,level of expressed mRNA in the presence/in the absence of chemical substance,yeast gene YOR142W,1.0
same,The level of expressed mRNA in the presence of chemical substance/The level of expressed mRNA in the absence of chemical substance,yeast gene YOR153W,3.1
same,level of expressed mRNA in the presence/in the absence of chemical substance,yeast gene YOR176W,2.1
same,level of expressed mRNA in the presence/in the absence of chemical substance,yeast gene YOR178C,1.5
same,level of expressed mRNA in the presence/in the absence of chemical substance,yeast gene YOR251C,1.3
same,The level of expressed mRNA in the presence of chemical substance/The level of expressed mRNA in the absence of chemical substance,yeast gene YOR336W,1.0
same,The level of expressed mRNA in the presence of chemical substance/The level of expressed mRNA in the absence of chemical substance,yeast gene YOR347C,1.3
same,level of expressed mRNA in the presence/in the absence of chemical substance,yeast gene YOR348C,0.9
same,The level of expressed mRNA in the presence of chemical substance/The level of expressed mRNA in the absence of chemical substance,yeast gene YPL017C,0.8
same,level of expressed mRNA in the presence/in the absence of chemical substance,yeast gene YPL028W,1.8
same,level of expressed mRNA in the presence/in the absence of chemical substance,yeast gene YPL057C,2.0
same,level of expressed mRNA in the presence/in the absence of chemical substance,yeast gene YPL135W,1.7
same,The level of expressed mRNA in the presence of chemical substance/The level of expressed mRNA in the absence of chemical substance,yeast gene YPL147W,3.6
same,level of expressed mRNA in the presence/in the absence of chemical substance,yeast gene YPL148C,1.1
same,The level of expressed mRNA in the presence of chemical substance/The level of expressed mRNA in the absence of chemical substance,yeast gene YPR026W,1.3
same,level of expressed mRNA in the presence/in the absence of chemical substance,yeast gene YPR113W,1.9
same,level of expressed mRNA in the presence/in the absence of chemical substance,yeast gene YPR165W,2.7
same,The level of expressed mRNA in the presence of chemical substance/The level of expressed mRNA in the absence of chemical substance,yeast gene YPR167C,1.4
same,level of expressed mRNA in the presence/in the absence of chemical substance,yeast gene YPR183W,1.0
